Among the data in publication PMC10618744 (Cancer Discovery, 2023) are IC50 values, retold here.

In general, pIC50 refers to the negative decadic logarithm of the IC50, by convention in mol/L. Low values mean a high IC50, high ones a low IC50.

Molecules are shown by their SMILES. pIC50: −log10 of the molar value.

The assay addresses PRMT5 (protein arginine methyltransferase 5) (Homo sapiens, UniProt O14744). Type of assay: biochemical.

Chain of PRMT5 (protein arginine methyltransferase 5) (O14744 2-637): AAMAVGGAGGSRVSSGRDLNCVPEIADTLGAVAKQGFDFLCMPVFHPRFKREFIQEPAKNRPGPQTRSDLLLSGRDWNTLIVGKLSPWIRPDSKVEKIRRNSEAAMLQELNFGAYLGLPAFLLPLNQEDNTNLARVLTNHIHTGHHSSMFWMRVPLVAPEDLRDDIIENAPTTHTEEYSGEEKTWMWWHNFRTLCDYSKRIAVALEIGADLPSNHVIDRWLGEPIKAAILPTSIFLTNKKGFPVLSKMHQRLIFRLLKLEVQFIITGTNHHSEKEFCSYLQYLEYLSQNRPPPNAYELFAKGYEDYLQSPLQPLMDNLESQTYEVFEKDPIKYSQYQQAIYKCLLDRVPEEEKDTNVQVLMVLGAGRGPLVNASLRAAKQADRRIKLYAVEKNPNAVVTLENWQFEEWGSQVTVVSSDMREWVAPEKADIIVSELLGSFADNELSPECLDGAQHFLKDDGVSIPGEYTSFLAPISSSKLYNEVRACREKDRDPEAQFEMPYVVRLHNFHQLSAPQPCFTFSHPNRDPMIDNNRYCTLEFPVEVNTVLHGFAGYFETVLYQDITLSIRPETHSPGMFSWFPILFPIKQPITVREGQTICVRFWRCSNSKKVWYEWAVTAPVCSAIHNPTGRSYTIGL
Chain of PRMT5 (protein arginine methyltransferase 5) (Q9BQA1 2-342 partner): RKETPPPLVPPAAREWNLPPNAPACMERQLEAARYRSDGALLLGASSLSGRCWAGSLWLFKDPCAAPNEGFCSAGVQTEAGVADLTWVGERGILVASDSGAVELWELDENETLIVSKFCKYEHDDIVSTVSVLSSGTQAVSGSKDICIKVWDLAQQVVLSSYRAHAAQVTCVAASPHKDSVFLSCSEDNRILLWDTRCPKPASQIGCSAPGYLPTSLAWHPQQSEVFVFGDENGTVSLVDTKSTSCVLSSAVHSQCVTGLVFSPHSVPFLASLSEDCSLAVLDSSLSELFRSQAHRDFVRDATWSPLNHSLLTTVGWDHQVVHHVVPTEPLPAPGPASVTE

For `CSC[C@H]1O[C@@H](n2cnc3c(N)ncnc32)[C@H](O)[C@@H]1O` [MTA], the pIC50 is approximately 5.70.
